Test results: patent US20100048723A1, “Compositions and Methods for Preventing or Treating Obesity In Animals” (priority 2007, published 2010)
Marks after values point to notes of the source that are not given here.

Test system: canine genes
Test: Canine cell culture genomic assay: modification of gene expression in vitro (Affymetrix canine gene chips)
Type: cell-based
Design: key: those genes that are modified by capsaicin are identified by an asterix (*)
Settings: canine cell lines CCL34, CRL1430, CCL183, CTAC; up or down regulation
Description: We have compiled a database of substances known to modify the expression of various canine genes in canine cells in vitro according to the following methods provided below and previously described (see, e.g., U.S. 2006-0200320 Al).
Test substances are assayed in two concentrations using the following canine cell lines: CCL34 (kidney), CRL1430 (thymus), CCL183 (bone) (all obtained from the American Tissue Culture Collection) and CTAC (thyroid) (see, Measurement of NK Activity in Effector Cells Purified from Canine Peripheral Lymphocytes, Veterinary Immunology and Immunopathology, 35 (1993) 239-25 1). Briefly, cells are cultured in OptiCell chambers according to conventional methods and the next day treated with test substance. The solvent used at the higher of the two concentrations is used as a control. The following day the cells are harvested for genomic assay.
RNA is isolated from the canine cultures using commercially available methods, e.g., an RNAeasy Mini Kit (Qiagen, Valencia, Calif.) according to the manufacturers instructions and conventional methods. The quality of the isolated RNA is analyzed using a RNA 6000 Nano Assay and an Agilent 2100 Bioanalyzer. The procedure is performed according to the manufacturer's instructions provided in the Reagent Kit Guide (see Edition November 2003, by Agilent Technologies) with the following modifications: during gel preparation, rather than separating the filtered gel into aliquots of 65 uL each, the stock filtered gel is kept in the original microcentrifuge tube and the 65 uL is aliquoted as needed; while loading the RNA 6000 Nano Marker, 1 uL of RNase-free water (instead of RNA 6000 Nano Marker) is added to each sample well that will not contain sample. When loading the RNA 6000 Ladder and samples, heat denature the samples and RNA 6000 Ladder for an additional 30 seconds (total of 2.5 minutes) at 71° C.; with regard to “Starting the Chip Run”, choose the “Eukaryote Total RNA Nano” option from the assay menu.
Gene expression is measured for the treatment cell lines and controls using Affymetrix canine gene chips Canine-1 and Canine-2 according to the manufacturer's instructions. Gene expression data is determined to be either “up” or “down”-regulated for any given treatment. The decision on whether a gene is “up” or “down” is based on the fold change, which is calculated as treatment intensity/control intensity for each individual probe. […] Also, a probe is considered significant for further scrutiny if it is called as “present” in only one of the conditions being compared (treatment or control) and is “absent” or “marginal” in the other and the fold change is significant according to the software used. Probes that appear to be regulated in opposite directions in the two treatments are excluded from further analysis. The raw data is analyzed using GeneSpring version 7.0 (GS) software (Agilent Corporation) and validated using the R-Bioconductor (RB) freeware. Both software packages are used to compute probe intensities from the CEL files generated by the Affymetrix Instrument. The Present/Absent/Marginal calls per probe and P-values are computed using the R-Bioconductor and GeneSpring software separately.
Two schemes are used for data analysis. First: “across cell lines” and “within individual cell lines.” In the first scheme, genes are selected for scoring provided they are found to be significant and common across all cell-lines. The “across cell lines” yields the highest confidence data with minimum noise and may provide the best possible clues as to which genes are affected by individual ingredients. In the second scheme, only those genes that show a significant fold change in the two treatments according to both software packages within an individual cell lines are scored.
Table 1A provided hereinabove is a list of canine genes the expression of which is modified in vitro in the presence of various compounds. […]

`COc1cc(CNC(=O)CCCCC=CC(C)C)ccc1O` [capsaicin, 8-methyl-N-vanillyl-6-nonenamide] was tested, and the “expression of Complement component 4 modified in canine cells in vitro” value was “Complement component 4 *”, the “expression of Fragilis/homolog to rat interferon-inducible protein modified in canine cells in vitro” value was “protein*” and the “expression of Homolog to Homo sapiens interferon-induced 35-kDa protein modified in canine cells in vitro” value was “kDa protein*”. For the same compound, the “expression of L-Plastin/lymphocyte cytosolic protein 1 modified in canine cells in vitro” value was “L-Plastin/lymphocyte cytosolic protein 1*”, the “expression of α Cytochrome b558/cytochrome b-245 modified in canine cells in vitro” value was “^α Cytochrome b558/cytochrome b-245 *” and the “expression of α Tubulin, 1 modified in canine cells in vitro” value was “^α Tubulin, 1 *”.
